In EP4729615A1, “SIRNA TARGETING MMP7, SIRNA CONJUGATE AND MEDICAL USE THEREOF” (Tuojie Biotech (Shanghai) Co., Ltd., priority 2023, dated 2024):
Strand notation (5' to 3'): a small letter for the sugar, then the base; units joined by * are phosphorothioate-linked, units joined directly phosphodiester-linked; [ ] holds rarer units or linkages, { } end groups; capitals alone tell only the bases. {I-14} = ligand I-14 conjugated at sense 5' end; m = 2'-O-methyl; f = 2'-fluoro

Assays:
[1] = target: human recombinant αvβ6 protein (Homo sapiens, UniProt P06756+P18564); assay: fluorescence polarization (FP) binding assay with fluorescent RGD peptide; settings: 12 concentration points, highest 10 µM, 3-fold serial dilution
Sequence of human recombinant αvβ6 protein (P06756 31-992 limits assumed): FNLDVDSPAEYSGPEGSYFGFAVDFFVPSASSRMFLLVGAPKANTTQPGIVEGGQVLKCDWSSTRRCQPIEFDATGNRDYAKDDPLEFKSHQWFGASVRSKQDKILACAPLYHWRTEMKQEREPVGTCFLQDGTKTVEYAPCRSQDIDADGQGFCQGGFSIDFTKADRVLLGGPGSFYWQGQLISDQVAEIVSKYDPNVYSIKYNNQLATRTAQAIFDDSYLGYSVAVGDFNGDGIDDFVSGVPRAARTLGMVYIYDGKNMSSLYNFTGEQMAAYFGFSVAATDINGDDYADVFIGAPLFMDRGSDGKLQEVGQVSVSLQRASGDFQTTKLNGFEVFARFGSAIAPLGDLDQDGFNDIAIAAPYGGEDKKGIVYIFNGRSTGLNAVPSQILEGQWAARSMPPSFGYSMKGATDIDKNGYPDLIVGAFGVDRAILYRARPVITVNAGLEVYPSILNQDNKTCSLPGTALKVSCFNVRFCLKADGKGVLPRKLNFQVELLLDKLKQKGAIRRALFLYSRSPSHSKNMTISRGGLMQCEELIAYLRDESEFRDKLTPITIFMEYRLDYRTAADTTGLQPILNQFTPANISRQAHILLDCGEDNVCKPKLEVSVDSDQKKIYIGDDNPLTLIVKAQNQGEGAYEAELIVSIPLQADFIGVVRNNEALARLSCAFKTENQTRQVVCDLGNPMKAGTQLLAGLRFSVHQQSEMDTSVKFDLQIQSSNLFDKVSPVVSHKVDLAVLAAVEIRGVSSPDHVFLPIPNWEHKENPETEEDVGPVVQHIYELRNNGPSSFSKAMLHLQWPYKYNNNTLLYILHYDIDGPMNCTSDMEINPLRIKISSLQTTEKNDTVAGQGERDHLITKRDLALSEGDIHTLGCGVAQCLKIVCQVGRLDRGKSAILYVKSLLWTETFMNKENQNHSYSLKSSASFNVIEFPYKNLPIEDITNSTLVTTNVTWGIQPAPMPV
Sequence of human recombinant αvβ6 protein (P18564 22-707 limits assumed): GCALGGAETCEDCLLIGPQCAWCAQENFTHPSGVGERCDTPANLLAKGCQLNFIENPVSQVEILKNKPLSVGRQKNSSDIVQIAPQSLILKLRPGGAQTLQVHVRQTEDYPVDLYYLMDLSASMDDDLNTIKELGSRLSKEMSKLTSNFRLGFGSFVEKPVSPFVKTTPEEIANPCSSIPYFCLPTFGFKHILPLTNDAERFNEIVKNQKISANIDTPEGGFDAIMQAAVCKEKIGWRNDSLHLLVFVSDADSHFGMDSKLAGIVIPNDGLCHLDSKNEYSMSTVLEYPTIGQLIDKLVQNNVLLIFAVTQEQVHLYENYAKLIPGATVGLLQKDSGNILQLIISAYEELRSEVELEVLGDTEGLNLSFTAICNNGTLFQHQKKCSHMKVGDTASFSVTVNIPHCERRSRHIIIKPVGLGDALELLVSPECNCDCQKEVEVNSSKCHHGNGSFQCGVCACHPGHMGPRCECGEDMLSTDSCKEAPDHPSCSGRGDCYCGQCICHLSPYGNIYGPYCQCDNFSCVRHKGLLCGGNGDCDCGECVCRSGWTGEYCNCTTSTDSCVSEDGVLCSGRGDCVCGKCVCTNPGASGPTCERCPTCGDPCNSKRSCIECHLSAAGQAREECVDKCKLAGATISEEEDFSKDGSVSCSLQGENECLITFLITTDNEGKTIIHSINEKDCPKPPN
Experimental: The specific assay method is as follows: • 3.5 µL of test compound I-12 was added to a 384-well black plate. For the test compound, 12 concentration points were set up. The highest concentration was 10 µM, and 3-fold serial dilution was performed. DMSO control wells were used to determine the maximum signal, and 500 nM compound CWHM-12 (MCE, HY-18644) control wells were used as the minimum signal. Then, 3.5 µL of 4× human recombinant αvβ6 protein working solution was added. After incubation at room temperature for 15 min, 7 µL of 2× fluorescent RGD peptide solution was added to each well. The plate was incubated at room temperature for 1 h, and then FP signals were read using Envision. Using GraphPad Prism, the inhibition curve fitting was performed, and the IC50 value was calculated. The IC50 value (Z prime > 0.5) was calculated using the following formula: Y = Bottom + (Top−Bottom)/(1+10^(∧)((LogIC50−X)×HillSlope)) [formula] • X: Log inhibitor concentration; Y: inhibition rate %.

MMP7 mRNA = assay: on-target activity of siRNA conjugates at 2 endogenous concentration points in HCC38 cells, Q-PCR (Example 10); format: cell-based, human; settings: 24 h after transfection; for 2 nM remaining expression (%): siRNA conjugate 2 nM; for 10 nM remaining expression (%): siRNA conjugate 10 nM
Experimental: The siRNA conjugates were subjected to an in vitro molecular-level activity screening in HCC38 cells using 2 concentration gradients.
HCC38 cells were cultured at 37 °C with 5% CO2 in a 1640 culture medium containing 10% fetal bovine serum. 24 h prior to transfection, the HCC38 cells were seeded into a 96-well plate at a density of 1.5 × 10^4 cells per well, with each well containing 100 µL of the culture medium.
The cells were transfected with the siRNA conjugates using Lipofectamine RNAi Max (Invitrogen, 13778-150) according to the instructions. 0.3 µL of Lipofectamine RNAi Max was used for each well. A total of 2 concentration points were set for the siRNA conjugates, i.e., 10 nM and 2 nM, respectively. 24 h after transfection, RNA was extracted for Q-PCR to detect the activity of the siRNA conjugates. […] Table 9. Activity results of siRNA conjugates at 2 concentration points at the HCC38 cellular level

[N-]=[N+]=NCCOCCOCCOCCOCCOc1ccc(-c2ccc([C@H](CC(=O)O)NC(=O)CNC(=O)CCCNc3cc4ccccc4cn3)cc2)c2ccccc12 [I-12]
IC50 [1]: 79.9 nM

TJR103312: siRNA conjugate containing I-14; SS SEQ ID NO 28 (I-14UmsGmsGmGmUmAmGfAfUfGmUmCmAmAmUmAmAmAmUm), AS SEQ ID NO 58 (sense {I-14}-mU*mG*mGmGmUmAfGfAfUmGmUmCmAmAmUmAmAmAmU; antisense AUUUAUUGACAUCUACCCACU; antisense: chemistry not given here)
2 nM remaining expression (%) (MMP7 mRNA): 11.35%
10 nM remaining expression (%) (MMP7 mRNA): 8.20%

TJR103313: siRNA conjugate containing I-14; SS SEQ ID NO 29 (I-14UmsGmsAmCmUmCmAfGfAfAmAmCmAmAmAmAmAmAmUm), AS SEQ ID NO 59 (sense {I-14}-mU*mG*mAmCmUmCfAfGfAmAmAmCmAmAmAmAmAmAmU; antisense AUUUUUUGUUUCUGAGUCAUA; antisense: chemistry not given here)
2 nM remaining expression (%) (MMP7 mRNA): 8.05%
10 nM remaining expression (%) (MMP7 mRNA): 4.23%

TJR103314: siRNA conjugate containing I-14; SS SEQ ID NO 30 (I-14AmsUmsUmCmAmAmGfAfAfAmGmAmAmAmUmAmGmAmAm), AS SEQ ID NO 60 (sense {I-14}-mA*mU*mUmCmAmAfGfAfAmAmGmAmAmAmUmAmGmAmA; antisense UUCUAUUUCUUUCUUGAAUUA; antisense: chemistry not given here)
2 nM remaining expression (%) (MMP7 mRNA): 14.73%
10 nM remaining expression (%) (MMP7 mRNA): 8.03%
